The values that follow come from PubChem BioAssay (NCI).

The structures appear in SMILES notation.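 In this assay, cells in 96-well plates receive the compound at five concentrations for 48 hours. Endpoints are linearly interpolated between the surrounding concentrations. Definition used: TGI = concentration required for complete inhibition of growth.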 Where a SMILES comes first, the peptide text is derived from it. [ ]: non-standard residue; d: D form. ΔPro = O=C(O)[CH]1C=CCN1

Among the test systems are HOP-62 NSCLC; RPMI-8226 leukemia; NCI-H226 lung; OVCAR-3 ovarian; A549 NSCLC; NCI-H460 lung; HL-60(TB) leukemia; OVCAR-4 ovarian; K-562 leukemia; BT-549 breast; LOX IMVI melanoma; A498 renal; CCRF-CEM leukemia; SNB-75 CNS; HCT-15 colon; 786-0 renal; SF-268 CNS; NCI-H23 lung; MDA-N; ACHN renal.
Experiment in all cases: NCI tumour cell line growth inhibition, 48 h

As for `O=C1C=C(c2ccccc2)OC1C1Sc2ccccc2NC1=O` (stereo not given), the TGI is greater than 19.8 µM in the experiment with HOP-62 NSCLC; 12.5 µM in the experiment with RPMI-8226 leukemia; greater than 83.3 µM in the experiment with NCI-H226 lung; 18.9 µM with OVCAR-3 ovarian; greater than 44.7 µM with A549 NSCLC; greater than 20.9 µM in the experiment with NCI-H460 lung. Further, the TGI in the experiment with HL-60(TB) leukemia was 13.6 µM; with OVCAR-4 ovarian, greater than 100 µM; in the experiment with K-562 leukemia, greater than 28.3 µM; in the experiment with BT-549 breast it was greater than 100 µM; in the experiment with LOX IMVI melanoma it was greater than 64.6 µM; with A498 renal it was greater than 31.5 µM. Besides, the TGI was greater than 24.4 µM with CCRF-CEM leukemia; 50.3 µM with SNB-75 CNS; greater than 100 µM in the experiment on HCT-15 colon; greater than 66.3 µM in the experiment on 786-0 renal; greater than 100 µM with SF-268 CNS; greater than 31.5 µM with NCI-H23 lung. The TGI in the experiment with MDA-N was greater than 100 µM; with ACHN renal, greater than 62.6 µM.
Turning to `COc1ccccc1-n1nnc2c(N)nc(N)nc21`, the TGI in the experiment with HOP-62 NSCLC, in the experiment on RPMI-8226 leukemia, in the experiment with NCI-H226 lung, in the experiment with OVCAR-3 ovarian, with A549 NSCLC and in the experiment on NCI-H460 lung was greater than 100 µM throughout. Also, the TGI in the experiment on HL-60(TB) leukemia, in the experiment on OVCAR-4 ovarian, in the experiment with K-562 leukemia, in the experiment on BT-549 breast, in the experiment with LOX IMVI melanoma and with A498 renal was greater than 100 µM throughout. In addition, the TGI with CCRF-CEM leukemia, in the experiment on SNB-75 CNS, with HCT-15 colon, in the experiment with 786-0 renal, in the experiment on SF-268 CNS and in the experiment with NCI-H23 lung was greater than 100 µM throughout. Moreover, the TGI in the experiment with MDA-N and with ACHN renal was greater than 100 µM throughout.
As for `O=C(O)C1C=CCN1C(=O)C1C=CCN1C(=O)C1C=CCN1` (stereo not given) (H-[ΔPro]-[ΔPro]-[ΔPro]-OH; configuration not given here), the TGI with HOP-62 NSCLC, in the experiment with RPMI-8226 leukemia, in the experiment with NCI-H226 lung, in the experiment on OVCAR-3 ovarian, in the experiment with A549 NSCLC and in the experiment on NCI-H460 lung was greater than 100 µM throughout. Further, the TGI in the experiment with HL-60(TB) leukemia, in the experiment on OVCAR-4 ovarian, in the experiment with K-562 leukemia, in the experiment on BT-549 breast, in the experiment on LOX IMVI melanoma and with A498 renal was greater than 100 µM throughout. In addition, the TGI in the experiment on CCRF-CEM leukemia, with SNB-75 CNS, with HCT-15 colon, in the experiment with 786-0 renal, with SF-268 CNS and in the experiment with NCI-H23 lung was greater than 100 µM throughout. The TGI with MDA-N and in the experiment with ACHN renal was greater than 100 µM in each case.
On to `CCN(CC)C1Oc2cc3c(cc2C(c2cc(OC)c(O)c(OC)c2)C1C)OCO3` (stereo not given), for which the TGI in the experiment on HOP-62 NSCLC was found to be 39.6 µM; in the experiment on RPMI-8226 leukemia, 34.7 µM; in the experiment on NCI-H226 lung, 52.3 µM; in the experiment on OVCAR-3 ovarian, 25.9 µM; in the experiment on A549 NSCLC it was 60 µM; in the experiment with NCI-H460 lung, 20.6 µM. Besides, the TGI with HL-60(TB) leukemia was 11.9 µM; in the experiment with OVCAR-4 ovarian, greater than 82.2 µM; with K-562 leukemia it was 17.4 µM; with BT-549 breast, greater than 100 µM; in the experiment on LOX IMVI melanoma, 29 µM; in the experiment with A498 renal, 64.8 µM. Also, the TGI was 42.1 µM in the experiment on CCRF-CEM leukemia; 23.9 µM with SNB-75 CNS; greater than 38.6 µM in the experiment with HCT-15 colon; 29.1 µM in the experiment on 786-0 renal; greater than 100 µM in the experiment on SF-268 CNS; greater than 100 µM with NCI-H23 lung. Besides, the TGI is 4.8 µM with MDA-N and greater than 100 µM with ACHN renal.
As for `CC(=O)OCC1(C)C(O)CCC2(C)C1CCC1CC3CC12CCC3(O)CO` (stereo not given), the TGI with HOP-62 NSCLC, in the experiment with RPMI-8226 leukemia, in the experiment on NCI-H226 lung, in the experiment on OVCAR-3 ovarian, with A549 NSCLC and with NCI-H460 lung was greater than 100 µM throughout. In addition, the TGI is greater than 100 µM in the experiment on HL-60(TB) leukemia; greater than 100 µM in the experiment with OVCAR-4 ovarian; greater than 100 µM in the experiment with K-562 leukemia; greater than 100 µM in the experiment with BT-549 breast; greater than 100 µM in the experiment on LOX IMVI melanoma; 8.59 µM in the experiment with A498 renal. In addition, the TGI in the experiment with CCRF-CEM leukemia, in the experiment with SNB-75 CNS, in the experiment on HCT-15 colon, in the experiment with 786-0 renal, with SF-268 CNS and in the experiment on NCI-H23 lung was greater than 100 µM throughout. Moreover, the TGI with MDA-N and in the experiment with ACHN renal was greater than 100 µM throughout.
Consider `CCO/C(O)=C(/C(=N)N1CCOCC1)C(=O)NC(C)C`, for which the TGI in the experiment on HOP-62 NSCLC, in the experiment on RPMI-8226 leukemia, in the experiment on NCI-H226 lung, in the experiment on OVCAR-3 ovarian, in the experiment on A549 NSCLC and with NCI-H460 lung was greater than 100 µM in each case. Moreover, the TGI with HL-60(TB) leukemia, in the experiment with OVCAR-4 ovarian, in the experiment with K-562 leukemia, in the experiment with BT-549 breast, in the experiment with LOX IMVI melanoma and in the experiment on A498 renal was greater than 100 µM throughout. The TGI in the experiment with CCRF-CEM leukemia, in the experiment with SNB-75 CNS, in the experiment with HCT-15 colon, with 786-0 renal, in the experiment with SF-268 CNS and in the experiment on NCI-H23 lung was greater than 100 µM in each case. The TGI with MDA-N and in the experiment with ACHN renal was greater than 100 µM throughout.
As for `C=C1c2nc3ccccc3n2C=C(c2ccccc2)N1c1ccc(Cl)cc1`, the TGI with HOP-62 NSCLC was greater than 63.3 µM; in the experiment on RPMI-8226 leukemia, greater than 85 µM; in the experiment on NCI-H226 lung it was greater than 87.1 µM; in the experiment on OVCAR-3 ovarian, 59.5 µM; with A549 NSCLC, greater than 100 µM; in the experiment with NCI-H460 lung, greater than 49.4 µM. For the same compound, the TGI in the experiment with HL-60(TB) leukemia is greater than 100 µM; with OVCAR-4 ovarian, 61.6 µM; in the experiment on K-562 leukemia, greater than 100 µM; with BT-549 breast, greater than 66.2 µM; in the experiment with LOX IMVI melanoma, greater than 100 µM; in the experiment on A498 renal, greater than 77 µM. The TGI in the experiment on CCRF-CEM leukemia was greater than 100 µM; with SNB-75 CNS, 19 µM; in the experiment on HCT-15 colon, greater than 90.1 µM; in the experiment on 786-0 renal, 20.6 µM; with SF-268 CNS, greater than 100 µM; with NCI-H23 lung, 79.7 µM. The TGI is greater than 100 µM in the experiment with MDA-N and 38.4 µM in the experiment with ACHN renal.
